The results in this text go back to ChEMBL document CHEMBL3132769, “Fragment growing to retain or alter the selectivity of anchored kinase hinge-binding fragments” (Medchemcomm, 2014).

Assay [1] addresses Cyclin-dependent kinase 2 (Homo sapiens) (UniProt P24941). As to the kind of experiment: Inhibition of human full length CDK2 expressed in baculovirus assessed as substrate phosphorylation using fluorescence-labelled peptides as substrate at 0.1 uM after 90 mins by microfluidic peptide phosphorylation assay.
The target in assay [2] is Mitogen-activated protein kinase kinase kinase kinase 4 (Homo sapiens) (UniProt O95819). As to the kind of experiment: Inhibition of human HGK catalytic domain expressed in baculovirus assessed as substrate phosphorylation using fluorescence-labelled peptides as substrate at 420 uM after 90 mins by microfluidic peptide phosphorylation assay.
For assay [3], the target named is Tyrosine-protein kinase Fer (Homo sapiens) (UniProt P16591). The experiment in a line: Inhibition of human FER catalytic domain expressed in baculovirus assessed as substrate phosphorylation using fluorescence-labelled peptides as substrate at 420 uM after 90 mins by microfluidic peptide phosphorylation assay.
Assay [4] deals with Hepatocyte growth factor receptor (Homo sapiens) (UniProt P08581). The experiment in a line: Inhibition of human MET cytoplasmic domain expressed in baculovirus assessed as substrate phosphorylation using fluorescence-labelled peptides as substrate at 420 uM after 90 mins by microfluidic peptide phosphorylation assay.
Assay [5] has as its target T1, Serine/threonine-protein kinase Nek2 (Homo sapiens) (UniProt P51955).
T1 sequence (whole entry): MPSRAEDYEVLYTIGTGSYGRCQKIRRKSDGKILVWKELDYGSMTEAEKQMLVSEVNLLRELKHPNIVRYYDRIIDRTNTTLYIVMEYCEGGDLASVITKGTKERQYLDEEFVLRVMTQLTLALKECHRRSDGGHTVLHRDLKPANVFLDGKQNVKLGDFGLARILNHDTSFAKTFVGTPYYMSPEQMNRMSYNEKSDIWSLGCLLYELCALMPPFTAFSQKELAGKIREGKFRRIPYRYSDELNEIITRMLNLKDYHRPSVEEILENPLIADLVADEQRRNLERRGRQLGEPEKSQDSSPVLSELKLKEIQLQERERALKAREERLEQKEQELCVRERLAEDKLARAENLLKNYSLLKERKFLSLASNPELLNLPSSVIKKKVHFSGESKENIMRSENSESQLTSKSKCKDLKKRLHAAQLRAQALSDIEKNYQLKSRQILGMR
The experiment in a line: Inhibition of human full length NEK2 expressed in baculovirus assessed as substrate phosphorylation using fluorescence-labelled peptides as substrate at 420 uM after 90 mins by microfluidic peptide phosphorylation assay.

In assay [6] the target is Cyclin-dependent kinase 2 (Homo sapiens) (UniProt P24941). The experiment in a line: Inhibition of human full length CDK2 expressed in baculovirus assessed as substrate phosphorylation using fluorescence-labelled peptides as substrate at 95 uM after 90 mins by microfluidic peptide phosphorylation assay.
Assay [7] addresses Calcium/calmodulin-dependent protein kinase type II subunit delta (Homo sapiens) (UniProt Q13557). As to the kind of experiment: Inhibition of human full length CAMK2D expressed in baculovirus assessed as substrate phosphorylation using fluorescence-labelled peptides as substrate at 9 uM after 90 mins by microfluidic peptide phosphorylation assay.
Assay [8] has as its target T2, Aurora kinase A (Homo sapiens) (UniProt O14965).
T2 sequence (whole entry): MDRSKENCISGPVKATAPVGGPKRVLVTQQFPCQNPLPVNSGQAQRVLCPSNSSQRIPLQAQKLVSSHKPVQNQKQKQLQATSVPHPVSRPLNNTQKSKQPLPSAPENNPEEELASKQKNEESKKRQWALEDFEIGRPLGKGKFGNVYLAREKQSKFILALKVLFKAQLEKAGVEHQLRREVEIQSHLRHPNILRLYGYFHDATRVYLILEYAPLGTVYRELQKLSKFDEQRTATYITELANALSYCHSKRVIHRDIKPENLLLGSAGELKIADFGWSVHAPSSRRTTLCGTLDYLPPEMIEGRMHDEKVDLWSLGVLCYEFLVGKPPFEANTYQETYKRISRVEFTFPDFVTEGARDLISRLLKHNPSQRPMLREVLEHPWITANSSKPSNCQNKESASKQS
As to the kind of experiment: Inhibition of human full length AurA expressed in baculovirus assessed as substrate phosphorylation using fluorescence-labelled peptides as substrate at 1000 uM after 90 mins by microfluidic peptide phosphorylation assay.

In assay [9] the target is RAC-alpha serine/threonine-protein kinase (Homo sapiens) (UniProt P31749). Conditions: 1000 uM.
Description: Inhibition of human AKT1 catalytic domain expressed in baculovirus assessed as substrate phosphorylation using fluorescence-labelled peptides as substrate at 1000 uM after 90 mins by microfluidic peptide phosphorylation assay
Assay [10] deals with Ribosomal protein S6 kinase alpha-1 (Homo sapiens) (UniProt Q15418). The experiment in a line: Inhibition of human full length RSK1 expressed in baculovirus assessed as substrate phosphorylation using fluorescence-labelled peptides as substrate at 0.06 uM after 90 mins by microfluidic peptide phosphorylation assay.
The target of assay [11] is RAF proto-oncogene serine/threonine-protein kinase (Homo sapiens) (UniProt P04049). The experiment in a line: Inhibition of human truncated c-Raf expressed in baculovirus assessed as substrate phosphorylation using fluorescence-labelled peptides as substrate at 2 uM after 90 mins by microfluidic peptide phosphorylation assay.
In assay [12] the target is Epidermal growth factor receptor (Homo sapiens) (UniProt P00533). The experiment in a line: Inhibition of human EGFR catalytic domain expressed in baculovirus assessed as substrate phosphorylation using fluorescence-labelled peptides as substrate at 2 uM after 90 mins by microfluidic peptide phosphorylation assay.
The target in assay [13] is Serine/threonine-protein kinase MARK1 (Homo sapiens) (UniProt Q9P0L2). As to the kind of experiment: Inhibition of human full length MARK1 expressed in baculovirus assessed as substrate phosphorylation using fluorescence-labelled peptides as substrate at 70 uM after 90 mins by microfluidic peptide phosphorylation assay.
Assay [14] deals with T3, Serine/threonine-protein kinase BRSK1 (Homo sapiens) (UniProt Q8TDC3).
T3 sequence (whole entry): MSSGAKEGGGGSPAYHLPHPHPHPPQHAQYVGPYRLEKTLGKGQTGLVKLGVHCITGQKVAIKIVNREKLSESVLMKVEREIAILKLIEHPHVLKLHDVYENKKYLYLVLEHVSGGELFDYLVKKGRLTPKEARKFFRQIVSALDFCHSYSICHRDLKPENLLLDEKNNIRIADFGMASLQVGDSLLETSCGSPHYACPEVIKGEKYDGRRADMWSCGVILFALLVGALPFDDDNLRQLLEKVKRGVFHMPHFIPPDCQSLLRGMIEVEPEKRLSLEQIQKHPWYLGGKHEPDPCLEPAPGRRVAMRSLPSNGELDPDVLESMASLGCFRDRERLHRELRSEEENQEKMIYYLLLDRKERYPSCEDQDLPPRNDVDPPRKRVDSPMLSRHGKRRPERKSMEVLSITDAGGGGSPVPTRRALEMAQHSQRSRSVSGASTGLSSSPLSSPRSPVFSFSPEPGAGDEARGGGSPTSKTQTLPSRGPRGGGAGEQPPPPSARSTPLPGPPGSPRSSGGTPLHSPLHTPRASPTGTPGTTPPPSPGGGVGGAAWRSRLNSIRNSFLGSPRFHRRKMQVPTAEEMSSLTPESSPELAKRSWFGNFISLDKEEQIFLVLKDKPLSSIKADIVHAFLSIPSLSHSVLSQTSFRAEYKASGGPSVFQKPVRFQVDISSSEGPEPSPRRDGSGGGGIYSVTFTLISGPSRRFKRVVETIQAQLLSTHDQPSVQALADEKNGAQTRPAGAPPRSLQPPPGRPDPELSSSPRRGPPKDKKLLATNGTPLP
The experiment in a line: Inhibition of human full length BRSK1 expressed in baculovirus assessed as substrate phosphorylation using fluorescence-labelled peptides as substrate at 70 uM after 90 mins by microfluidic peptide phosphorylation assay.

Sequence of RAF proto-oncogene serine/threonine-protein kinase (Homo sapiens) (P04049 whole entry, the tested form may be a part): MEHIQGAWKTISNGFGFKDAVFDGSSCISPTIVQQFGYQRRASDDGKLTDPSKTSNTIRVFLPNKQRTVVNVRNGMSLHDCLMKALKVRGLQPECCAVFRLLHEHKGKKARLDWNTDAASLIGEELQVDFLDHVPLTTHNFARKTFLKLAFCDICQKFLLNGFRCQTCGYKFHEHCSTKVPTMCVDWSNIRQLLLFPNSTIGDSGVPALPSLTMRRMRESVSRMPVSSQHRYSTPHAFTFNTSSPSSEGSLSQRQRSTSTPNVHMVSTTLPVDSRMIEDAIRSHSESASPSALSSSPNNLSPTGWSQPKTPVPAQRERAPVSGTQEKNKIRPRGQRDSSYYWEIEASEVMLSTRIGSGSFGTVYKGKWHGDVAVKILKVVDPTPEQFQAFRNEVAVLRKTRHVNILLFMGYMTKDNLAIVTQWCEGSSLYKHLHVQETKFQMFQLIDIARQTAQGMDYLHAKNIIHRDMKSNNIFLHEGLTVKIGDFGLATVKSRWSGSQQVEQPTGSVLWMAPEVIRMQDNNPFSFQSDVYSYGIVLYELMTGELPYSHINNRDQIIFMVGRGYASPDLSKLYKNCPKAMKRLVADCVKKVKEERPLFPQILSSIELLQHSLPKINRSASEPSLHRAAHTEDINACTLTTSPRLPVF
Sequence of Hepatocyte growth factor receptor (Homo sapiens) (P08581 whole entry, the tested form may be a part): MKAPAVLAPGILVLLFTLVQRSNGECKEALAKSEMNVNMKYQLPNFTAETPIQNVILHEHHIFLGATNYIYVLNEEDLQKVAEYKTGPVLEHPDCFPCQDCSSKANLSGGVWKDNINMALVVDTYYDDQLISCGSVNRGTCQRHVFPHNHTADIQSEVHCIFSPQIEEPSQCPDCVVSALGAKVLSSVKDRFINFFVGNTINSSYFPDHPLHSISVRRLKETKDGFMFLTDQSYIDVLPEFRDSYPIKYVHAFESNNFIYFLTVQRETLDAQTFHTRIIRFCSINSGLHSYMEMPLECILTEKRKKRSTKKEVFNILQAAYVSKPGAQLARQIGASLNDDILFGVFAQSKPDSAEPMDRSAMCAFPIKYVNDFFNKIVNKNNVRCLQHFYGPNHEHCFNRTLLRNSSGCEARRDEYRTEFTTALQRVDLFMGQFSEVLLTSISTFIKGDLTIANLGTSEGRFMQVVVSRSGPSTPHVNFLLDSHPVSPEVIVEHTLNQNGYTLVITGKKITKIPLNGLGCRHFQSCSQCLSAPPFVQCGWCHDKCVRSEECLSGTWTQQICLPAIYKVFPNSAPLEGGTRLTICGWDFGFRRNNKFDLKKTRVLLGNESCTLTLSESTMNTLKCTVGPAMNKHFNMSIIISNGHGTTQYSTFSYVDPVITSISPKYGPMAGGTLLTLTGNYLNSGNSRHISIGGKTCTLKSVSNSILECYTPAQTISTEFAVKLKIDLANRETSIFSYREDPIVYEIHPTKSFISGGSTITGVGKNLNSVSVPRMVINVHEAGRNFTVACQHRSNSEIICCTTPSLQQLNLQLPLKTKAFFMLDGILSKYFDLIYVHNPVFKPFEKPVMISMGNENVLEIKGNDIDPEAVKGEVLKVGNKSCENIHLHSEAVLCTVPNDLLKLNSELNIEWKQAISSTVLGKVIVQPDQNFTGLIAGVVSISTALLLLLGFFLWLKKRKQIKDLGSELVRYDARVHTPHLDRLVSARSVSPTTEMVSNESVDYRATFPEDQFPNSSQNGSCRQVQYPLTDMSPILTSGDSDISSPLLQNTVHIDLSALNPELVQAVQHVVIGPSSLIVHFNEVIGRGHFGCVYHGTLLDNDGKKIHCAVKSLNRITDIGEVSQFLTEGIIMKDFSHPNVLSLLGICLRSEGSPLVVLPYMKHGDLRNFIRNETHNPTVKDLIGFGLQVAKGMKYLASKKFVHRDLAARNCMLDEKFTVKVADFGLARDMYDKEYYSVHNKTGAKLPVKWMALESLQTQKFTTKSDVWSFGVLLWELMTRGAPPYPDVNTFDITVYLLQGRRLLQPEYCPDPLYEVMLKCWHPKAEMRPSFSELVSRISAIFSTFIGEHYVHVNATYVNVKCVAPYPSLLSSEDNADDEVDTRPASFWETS
Sequence of Tyrosine-protein kinase Fer (Homo sapiens) (P16591 whole entry, looked up, the tested form may be a part): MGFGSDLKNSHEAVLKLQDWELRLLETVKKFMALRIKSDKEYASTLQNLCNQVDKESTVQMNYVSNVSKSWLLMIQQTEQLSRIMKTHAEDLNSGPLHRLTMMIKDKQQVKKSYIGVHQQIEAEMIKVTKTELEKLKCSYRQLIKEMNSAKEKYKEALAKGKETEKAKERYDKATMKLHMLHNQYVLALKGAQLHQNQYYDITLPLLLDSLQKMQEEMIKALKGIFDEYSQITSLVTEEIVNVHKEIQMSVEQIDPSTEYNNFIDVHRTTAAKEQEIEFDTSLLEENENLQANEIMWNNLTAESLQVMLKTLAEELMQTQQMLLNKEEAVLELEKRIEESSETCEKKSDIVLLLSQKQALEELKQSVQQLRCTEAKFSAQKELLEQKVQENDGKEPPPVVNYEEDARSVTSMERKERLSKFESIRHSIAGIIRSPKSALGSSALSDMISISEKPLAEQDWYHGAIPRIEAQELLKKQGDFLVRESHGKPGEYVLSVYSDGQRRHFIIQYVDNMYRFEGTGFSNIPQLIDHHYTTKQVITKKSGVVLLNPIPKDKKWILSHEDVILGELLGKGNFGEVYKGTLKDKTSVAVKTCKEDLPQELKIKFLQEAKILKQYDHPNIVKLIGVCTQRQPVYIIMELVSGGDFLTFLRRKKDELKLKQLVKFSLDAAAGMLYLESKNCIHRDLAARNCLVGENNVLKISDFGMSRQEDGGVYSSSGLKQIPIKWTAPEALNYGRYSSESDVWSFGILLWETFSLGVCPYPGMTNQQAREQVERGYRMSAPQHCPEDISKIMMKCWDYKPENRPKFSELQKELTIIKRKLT
Sequence of Calcium/calmodulin-dependent protein kinase type II subunit delta (Homo sapiens) (Q13557 whole entry): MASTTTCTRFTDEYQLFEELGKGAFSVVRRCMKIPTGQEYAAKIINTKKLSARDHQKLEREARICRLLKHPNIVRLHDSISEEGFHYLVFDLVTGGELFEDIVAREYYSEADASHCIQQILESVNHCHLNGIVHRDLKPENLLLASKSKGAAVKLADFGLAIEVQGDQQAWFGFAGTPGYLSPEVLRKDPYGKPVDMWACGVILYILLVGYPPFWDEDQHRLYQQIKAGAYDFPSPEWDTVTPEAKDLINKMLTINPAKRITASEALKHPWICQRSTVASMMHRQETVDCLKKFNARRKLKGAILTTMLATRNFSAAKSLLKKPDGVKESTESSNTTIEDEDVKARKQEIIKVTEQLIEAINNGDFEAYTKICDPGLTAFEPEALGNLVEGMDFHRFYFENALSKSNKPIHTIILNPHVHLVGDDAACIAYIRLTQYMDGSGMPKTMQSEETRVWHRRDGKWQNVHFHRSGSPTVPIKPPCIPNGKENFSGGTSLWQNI
Sequence of Mitogen-activated protein kinase kinase kinase kinase 4 (Homo sapiens) (O95819 2-1239 limits assumed): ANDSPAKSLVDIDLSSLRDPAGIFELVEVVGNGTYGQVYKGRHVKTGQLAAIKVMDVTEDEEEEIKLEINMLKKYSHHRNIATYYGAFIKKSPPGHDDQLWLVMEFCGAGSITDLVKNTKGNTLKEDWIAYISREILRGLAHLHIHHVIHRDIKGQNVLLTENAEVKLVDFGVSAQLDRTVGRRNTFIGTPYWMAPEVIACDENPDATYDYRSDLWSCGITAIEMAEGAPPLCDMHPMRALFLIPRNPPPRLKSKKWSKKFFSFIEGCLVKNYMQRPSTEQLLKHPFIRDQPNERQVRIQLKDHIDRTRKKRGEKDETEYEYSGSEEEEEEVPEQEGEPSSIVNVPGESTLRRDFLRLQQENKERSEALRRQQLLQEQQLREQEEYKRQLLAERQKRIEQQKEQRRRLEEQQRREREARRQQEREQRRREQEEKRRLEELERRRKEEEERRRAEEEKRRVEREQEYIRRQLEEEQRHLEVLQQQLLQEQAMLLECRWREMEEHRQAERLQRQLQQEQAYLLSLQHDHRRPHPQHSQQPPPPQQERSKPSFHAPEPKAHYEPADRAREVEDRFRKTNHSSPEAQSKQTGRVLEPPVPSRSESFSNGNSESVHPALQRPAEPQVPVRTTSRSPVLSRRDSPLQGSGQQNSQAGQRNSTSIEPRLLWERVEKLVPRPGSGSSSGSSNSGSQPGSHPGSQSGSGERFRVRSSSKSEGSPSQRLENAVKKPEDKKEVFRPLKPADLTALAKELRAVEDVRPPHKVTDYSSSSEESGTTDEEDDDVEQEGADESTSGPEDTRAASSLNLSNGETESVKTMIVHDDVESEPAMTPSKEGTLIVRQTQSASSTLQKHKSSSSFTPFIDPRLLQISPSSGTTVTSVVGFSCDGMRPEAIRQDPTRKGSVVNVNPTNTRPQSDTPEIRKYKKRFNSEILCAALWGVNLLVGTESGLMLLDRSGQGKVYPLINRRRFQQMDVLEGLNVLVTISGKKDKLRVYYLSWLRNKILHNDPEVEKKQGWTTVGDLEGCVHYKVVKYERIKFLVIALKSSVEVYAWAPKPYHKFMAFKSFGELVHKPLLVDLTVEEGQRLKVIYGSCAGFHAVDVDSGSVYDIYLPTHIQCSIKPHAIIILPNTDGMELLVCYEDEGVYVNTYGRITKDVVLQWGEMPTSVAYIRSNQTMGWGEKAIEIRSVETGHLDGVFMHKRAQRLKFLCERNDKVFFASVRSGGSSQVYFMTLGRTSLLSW
Sequence of RAC-alpha serine/threonine-protein kinase (Homo sapiens) (P31749 whole entry): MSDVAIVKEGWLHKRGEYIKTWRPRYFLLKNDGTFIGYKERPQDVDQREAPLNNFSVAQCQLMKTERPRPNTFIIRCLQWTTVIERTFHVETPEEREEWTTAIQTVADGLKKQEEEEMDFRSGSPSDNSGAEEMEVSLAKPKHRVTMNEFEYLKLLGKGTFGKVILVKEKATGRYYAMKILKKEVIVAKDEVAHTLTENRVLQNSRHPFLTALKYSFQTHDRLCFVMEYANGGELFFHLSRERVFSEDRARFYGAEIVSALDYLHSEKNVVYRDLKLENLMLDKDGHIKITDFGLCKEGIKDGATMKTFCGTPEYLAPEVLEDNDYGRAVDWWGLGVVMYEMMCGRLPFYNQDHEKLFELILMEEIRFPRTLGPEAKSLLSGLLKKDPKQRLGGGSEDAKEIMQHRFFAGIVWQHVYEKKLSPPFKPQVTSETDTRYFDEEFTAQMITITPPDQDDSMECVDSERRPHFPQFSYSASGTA

A word on the inhibition: it is the drop in the measured response relative to a control, in per cent. In the case of `C[C@H](CN(C)C)Oc1nc(Nc2cc3cccc(Cl)c3cn2)cnc1C#N`, in assay [1], the inhibition is 1.5%. With `c1nc(N2CCOCC2)c2nc[nH]c2n1`, the inhibition in assay [2] was determined as 78.5%; in assay [3], 70.5%; in assay [4], 23%; in assay [5], 27%. Take `NCCc1ccc(-c2ncnc3[nH]cnc23)cc1`: in assay [6], the inhibition was 39.5%. For the molecule `NCC1CN(c2ncnc3[nH]c4cnccc4c23)CCO1` (centres undefined), the inhibition in assay [7] came out at 42.5%.

`c1cnc2[nH]ccc2c1`: the results for the inhibition in assay [8] and in assay [9] were 88% and 65.5%, respectively. As to `NC1(Cc2ccc(Cl)cc2)CCN(c2ncnc3[nH]ccc23)CC1`, the inhibition in assay [10] worked out at 19.5%.

On to `NC1CCN(c2ncnc3[nH]ccc23)CC1`, for which the results for the inhibition in assay [11] and in [12] were 7% and 3.5%, respectively.

For the molecule `CNCc1ccc(-c2ncnc3[nH]cnc23)cc1`, the inhibition in assay [13] came out at 52%; in [14], 29.5%.
